Laboratory results taken from PMC3938834, “De Novo Peptide Design and Experimental Validation of Histone Methyltransferase Inhibitors” (PLoS ONE, 2014).
Read-outs that look alike come from different tables or passages of the source. No end group written: not given here.

Columns and labels:
EZH2 = conditions: small molecule inhibitor quoted for reference; cited from earlier work
Method: (§1) To quantitatively measure the inhibition properties of the designed sequences, peptide dose titrations were performed. The concentration of peptide required to suppress 50% of the enzymatic activity (i.e. half-maximal inhibitory concentration, ) and the Hill coefficient (measure of cooperativity of binding) were calculated (Table 2).

[1] = molecular target: T1, EZH2 (reconstituted recombinant PRC2 containing full length EZH2, SUZ12, EED, RBAP46/48) (Homo sapiens, UniProt Q15910); assay: radiometric EZH2 HMT enzymatic assay, 384-well Flashplate, 10-point dose titrations; type: biochemical
T1 construct: reconstituted recombinant PRC2 (containing full length EZH2, SUZ12, EED, RBAP46/48)
T1 sequence (Q15910 whole entry): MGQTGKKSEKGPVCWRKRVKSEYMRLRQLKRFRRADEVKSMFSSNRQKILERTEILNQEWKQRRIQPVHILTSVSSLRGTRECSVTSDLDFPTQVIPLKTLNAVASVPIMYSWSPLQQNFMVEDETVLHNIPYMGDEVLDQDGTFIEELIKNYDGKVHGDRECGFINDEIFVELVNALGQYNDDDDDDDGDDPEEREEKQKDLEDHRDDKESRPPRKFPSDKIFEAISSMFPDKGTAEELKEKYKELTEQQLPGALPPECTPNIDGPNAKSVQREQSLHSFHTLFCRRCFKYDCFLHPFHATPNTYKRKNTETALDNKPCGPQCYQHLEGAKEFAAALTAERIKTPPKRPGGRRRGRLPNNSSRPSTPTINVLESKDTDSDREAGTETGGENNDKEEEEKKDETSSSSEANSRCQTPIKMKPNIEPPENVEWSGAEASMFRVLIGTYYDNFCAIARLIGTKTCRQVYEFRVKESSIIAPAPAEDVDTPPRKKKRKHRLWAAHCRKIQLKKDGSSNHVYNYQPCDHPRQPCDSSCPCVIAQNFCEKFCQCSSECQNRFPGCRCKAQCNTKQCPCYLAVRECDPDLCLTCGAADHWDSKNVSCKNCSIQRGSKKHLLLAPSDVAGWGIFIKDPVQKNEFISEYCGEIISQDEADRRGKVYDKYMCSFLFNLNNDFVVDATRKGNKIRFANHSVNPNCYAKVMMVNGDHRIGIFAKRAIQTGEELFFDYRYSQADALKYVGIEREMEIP
T1 sequence (Q15022 whole entry partner): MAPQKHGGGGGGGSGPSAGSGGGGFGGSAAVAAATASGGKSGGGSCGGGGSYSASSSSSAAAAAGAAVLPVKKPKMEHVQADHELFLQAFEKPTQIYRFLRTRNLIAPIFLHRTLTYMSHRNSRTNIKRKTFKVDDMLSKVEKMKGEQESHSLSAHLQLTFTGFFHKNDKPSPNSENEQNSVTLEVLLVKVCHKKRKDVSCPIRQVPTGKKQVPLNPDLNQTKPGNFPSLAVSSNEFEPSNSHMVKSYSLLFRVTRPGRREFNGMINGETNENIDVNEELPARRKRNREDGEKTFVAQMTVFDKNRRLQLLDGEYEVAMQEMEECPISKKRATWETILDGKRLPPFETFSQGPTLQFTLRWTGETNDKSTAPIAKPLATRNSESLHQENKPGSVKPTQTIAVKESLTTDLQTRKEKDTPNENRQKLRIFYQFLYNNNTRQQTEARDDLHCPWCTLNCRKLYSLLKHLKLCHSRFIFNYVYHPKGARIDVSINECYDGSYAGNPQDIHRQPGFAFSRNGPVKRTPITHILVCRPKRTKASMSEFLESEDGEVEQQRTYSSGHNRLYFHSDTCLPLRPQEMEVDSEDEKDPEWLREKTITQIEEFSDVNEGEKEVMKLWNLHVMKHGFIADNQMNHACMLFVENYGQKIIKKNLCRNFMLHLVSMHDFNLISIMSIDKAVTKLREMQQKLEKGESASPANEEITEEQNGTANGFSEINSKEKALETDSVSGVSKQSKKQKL
T1 sequence (O75530 whole entry partner): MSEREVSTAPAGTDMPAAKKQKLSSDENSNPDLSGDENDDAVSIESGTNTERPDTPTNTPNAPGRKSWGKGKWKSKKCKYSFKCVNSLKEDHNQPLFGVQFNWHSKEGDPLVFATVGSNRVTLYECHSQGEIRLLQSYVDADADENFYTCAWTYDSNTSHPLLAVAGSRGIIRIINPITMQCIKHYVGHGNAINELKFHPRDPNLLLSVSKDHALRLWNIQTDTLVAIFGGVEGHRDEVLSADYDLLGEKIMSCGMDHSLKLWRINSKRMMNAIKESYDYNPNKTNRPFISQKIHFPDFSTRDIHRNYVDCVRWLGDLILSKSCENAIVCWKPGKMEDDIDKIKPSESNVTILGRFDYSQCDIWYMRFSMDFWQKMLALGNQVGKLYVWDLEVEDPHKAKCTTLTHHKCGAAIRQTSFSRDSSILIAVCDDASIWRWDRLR
T1 sequence (Q09028 whole entry partner): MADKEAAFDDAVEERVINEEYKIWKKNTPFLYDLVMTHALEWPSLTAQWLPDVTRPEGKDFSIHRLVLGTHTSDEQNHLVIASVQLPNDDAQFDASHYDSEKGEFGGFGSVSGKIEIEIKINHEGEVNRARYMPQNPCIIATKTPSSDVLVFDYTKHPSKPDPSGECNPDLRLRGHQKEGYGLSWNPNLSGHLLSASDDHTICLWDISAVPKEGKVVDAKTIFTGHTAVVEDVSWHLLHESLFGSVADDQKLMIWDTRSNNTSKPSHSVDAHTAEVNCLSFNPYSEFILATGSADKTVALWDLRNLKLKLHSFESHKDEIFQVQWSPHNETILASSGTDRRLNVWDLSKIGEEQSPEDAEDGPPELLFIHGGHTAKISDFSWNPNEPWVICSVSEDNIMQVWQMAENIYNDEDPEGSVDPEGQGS
Method: Experiments were performed using radiometric EZH2 enzymatic assays prepared individually or in a semi-automated fashion on a 384-well platform. For the experiments shown in Figures 3.A, 3.C, and 3.D, 4 [drawing 50] g of oligonucleosomes was used per reaction. For the experiments shown in Figures 3.C–D, 3 [drawing 51] g of PRC2 complex were added. For all other HMT assays (Figure 4, Figure 5, and Table 2) the following balanced conditions (at Km for cofactor and substrate) were used. […] The putative peptide inhibitors were tested in single point assays and in 10-point dose titrations. The total volume of the reaction mixture was 30 [drawing 55] L. Reactions were incubated for 1 hour at [drawing 56] C. Reactions terminated by the addition of 10 [drawing 57] L, 5× Laemmli Sample Buffer were loaded onto 15% Tri-Glycine-Polyacrylamide gels and resolved by PAGE. Resolved proteins were transferred to PVDF membrane at 65 V for 2 hours. Membranes were stained with CBB, destained, dried, and exposed to imaging plates for 24 hours. Images were detected using an FLA-7000 bioimaging system (Fujifilm). Reactions terminated by the addition of SAH to a final concentration of 850 [drawing 58] M were transferred to a 384-well Flashplate (Perkin Elmer) and incubated for 90 min. Liquids were aspirated and wells washed with 1×60 [drawing 59] L of wash buffer (50 mM Tris, pH 8.5, 200 mM NaCl, 0.01% NP-40). Detection of incorporated radioactivity in Flashplates was carried out using a Topcount instrument (Perkin Elmer). Potential inhibitory peptides were tested in single point assays and in 10-point dose titrations. Mechanism of Action Enzymatic Assays were performed under the same conditions and using the same protocol. However, in the Mechanism of Action Enzymatic assays the assays were performed with varied enzyme, substrate, or cofactor concentration to identify the mechanism of inhibition.
In order to assess the inhibitory capability of the candidate peptides experimentally, HMT enzymatic assays were conducted. These HMT assays assessed the EZH2-dependent transfer of tritiated methyl-groups from the methyl-donor SAM to reconstituted oligonucleosomes (see Methods for details).
as §1, with “concentration, [drawing 76]” for “concentration,”
Understanding the mechanism of action allows us to determine whether the competitive inhibition targeted by the design framework and the input biological constraints has been successful.

Molecule | IC50 ([1]; read-out: IC50) [µM] | other results
CCC(CC)n1ccc2c(C(=O)NCc3c(C)cc(C)[nH]c3=O)cc(C#N)cc21 [EI1] |  | IC50 (EZH2): ~0.015 µM
GKAPRKQLANRKWWKNYPRDG [SQ040] | 41 ± 1.19 | 
GKAPRKQLAPKAATKNARATS [SQ026] | 19.6 ± 1.12 | 
GKAPRKQLARKNWWKNYPRDG [SQ043] | 39.7 ± 1.17 | 
GKAPRKQLARRKWWFNYPQNG [SQ037] | 13.6 ± 1.24 | IC50 ([1]; Figure 5, high throughput radiometric assay, SQ037 versus native and mutated peptides, value printed in the picture without unit, read-out: IC50): 8.05 µM
GKAPRKQLASAKKAAATPRTG [SQ010] | 54.9 ± 1.26 | 
GKAPRKQLASKAARAATPKTG [SQ020] |  | IC50 [1]: 34.2 ± 1.46 µM
